Measured values: PMC5581522 (Cancer Science, 2017)
Entries after “also recorded” stand apart in the source; their conditions may differ. Read-outs that look alike come from different tables or passages of the source. Marks after values point to notes of the source that are not given here.

Assays:
[1] = tested on: recurrent ovarian cancer and germline BRCA1 and BRCA2 mutations; conditions: cited from earlier work
[2] = Phase 1 tolerability and safety (DLT, TEAEs, NCI CTCAE v4.0); type: in vivo, Japanese patients
Method: Eligible patients were assigned to one of two treatment groups (dose levels). […] Three to six patients were enrolled in each treatment group. Dose escalation was carried out according to a 3 + 3 design to define dose‐limiting toxicities (DLTs), and the maximum administered dose/recommended phase 2 dose (RP2D). […] Patients received treatment for a maximum of 30 cycles or until treatment discontinuation. […] Treatment could be postponed for up to 28 days due to toxicity; longer toxicity‐related delays would lead to study discontinuation.
The maximum tolerated dose (MTD) was defined as the highest dose level at which fewer than two of total six patients or <33% of patients (if the cohort was expanded beyond six patients) experienced a DLT. The RP2D was determined based on the observed DLTs and identified MTD; RP2D would not be dosed higher than the MTD. If the MTD was not reached, the RP2D was defined based on the safety and PK data. Prophylactic use of antiemetics and colony‐stimulating factors was not permitted during the DLT‐evaluation period, in order to clearly define the safety profile in Japanese patients.
The safety of each treatment group was assessed by evaluating study drug exposure, AEs, serious AEs (SAEs), all deaths, changes in laboratory determinations, and vital signs parameters. […] AEs were assessed according to the NCI CTCAE version 4.0.29 An independent data monitoring committee reviewed safety data for DLT evaluation.

[3] = Plasma pharmacokinetics, cycle 1 day 1, noncompartmental; type: in vivo, Japanese patients; conditions: for half-life / AUC(0-inf) / Cmax / AUC(0-t): human, plasma; for half-life: harmonic mean ± pseudo SD; for AUC(0-inf) / Cmax / AUC(0-t): mean ± SD; for AUC(0-t): read-out: AUC0–8
Source text: Noncompartmental methods were used to determine the maximum observed plasma concentration (C max), the time to C max (T max), the area under the plasma concentration‐time curve (AUC), and terminal elimination half‐life (t 1/2).

advanced solid tumors = test: Preliminary antitumor efficacy (RECIST version 1.1, TTP); type: in vivo, Japanese patients; conditions: for ORR: measurable disease
Method: To determine preliminary antitumor efficacy, baseline radiographic tumor assessments were conducted within 3 weeks prior to registration and thereafter every 8 weeks from cycle 1 day 1 and at the final visit, using the Response Evaluation Criteria In Solid Tumors (RECIST) version 1.1.30 In addition, the investigator evaluated the patient for evidence of clinical disease progression at each visit. Changes in measurable tumor lesions were assessed to determine the response rate, defined as proportion of patients with complete response (CR) or partial response (PR), and time to progression (TTP), defined as the number of days from the date the patient was dosed to the date the patient experienced an event of progressive disease (PD). […] Changes from baseline in performance status were analyzed.
Unless otherwise noted, for all statistical analyses, statistical significance was determined by a two‐sided P‐value ≤0.05. Descriptive statistics were used to describe baseline demographic variables, and summary statistics were computed for PK variables at each sampling time. PK variables were determined per patient and dose level. The safety of veliparib was assessed by evaluating veliparib exposure, AEs, SAEs, all deaths, and changes in laboratory determinations and vital sign parameters. The proportion of patients with CR or PR was estimated with a 95% confidence interval (CI) constructed for the estimated proportion. The distribution of TTP was estimated using Kaplan‐Meier methodology.

[4] = tested on: cancer antigen 125 (CA‐125); test: CA-125 tumor marker response (GCIG definition); type: in vivo, Japanese patients
Method: All enrolled patients with ovarian cancer or peritoneal cancer had measurements of cancer antigen 125 (CA‐125) on day 1 of cycle 1, every cycle (28 days) thereafter, and at the final visit. CA‐125 response was measured according to the Gynecologic Cancer InterGroup (GCIG) CA‐125 response definition.31

BRCA‐mutated tumors = conditions: phase 1, single agent; cited from earlier work
[5] = 200 mg oral, cycle 1 day 1, n = 4
[6] = 400 mg oral, cycle 1 day 1, n = 9
[7] = 400 mg oral, cycle 1 day 1, n = 12
[8] = 14 patients with measurable disease

## C[C@]1(c2nc3c(C(N)=O)cccc3[nH]2)CCCN1 [veliparib]
[1]; GOG‐280 study, germline BRCA1 or BRCA2 mutation
  DCR: 74.0%
[1]; n = 50, 90% CI: 16–38%
  patients with objective response: 26%
[1]; n = 50
  CR (number of patients): 2
  PR (number of patients): 11
[1]; phase 2 monotherapy
  median progression‐free survival: 8.2 months
[1]; platinum‐resistant patients, n = 6/30, 90% CI: 9–36%
  objective responses: 20%
[1]; platinum‐sensitive patients, n = 7/20, 90% CI: 18–56%
  objective responses: 35%
[2]; all patients
  AEs / toxicities leading to death: No toxicities leading to death; also recorded: no AEs or SAEs leading to death
[2]; human, in vivo
  patients who discontinued treatment due to AEs/toxicity: 6%
  patients with a grade ≥3 AE / toxicity: 50%
  patients with abdominal pain: 31.3%
  patients with at least one grade ≥1 TEAE: 100%
  patients with decreased appetite: 62.5%
  patients with diarrhea: 31.3%
  patients with dysgeusia: 31.3%
  patients with fatigue: 25%
  patients with insomnia: 25%
  patients with malaise: 31.3%
  patients with nausea: 93.8%
  patients with neutropenia: 25%
  patients with thrombocytopenia: 25%
  patients with vomiting: 93.8%
[2]; human, in vivo, po, 28 days
  recommended phase 2 dose (RP2D): 400 mg BID
[2]; in vivo
  anemia leading to dose interruption, reduction, or delay: one patient
  decreased appetite leading to dose interruption, reduction, or delay: one patient
  essential tremor leading to dose interruption, reduction, or delay: one patient
  fatigue leading to dose interruption, reduction, or delay: three patients
  nausea leading to dose interruption, reduction, or delay: three patients
  neutropenia leading to dose interruption, reduction, or delay: three patients
  patients experiencing a SAE: two patients
  patients with a dose‐limiting toxicity (DLT): one patient
  thrombocytopenia leading to dose interruption, reduction, or delay: three patients
  vomiting leading to dose interruption, reduction, or delay: two patients
[3]; [5]
  half-life: 4.6 ± 1.1 h
  AUC(0-inf): 13600 ± 6240 ng·h/mL
  Cmax: 2060 ± 1390 ng/mL
  AUC(0-t): 8890 ± 3770 ng·h/mL
[3]; [6]
  half-life: 4.6 ± 1.3 h
  AUC(0-inf): 29500 ± 9820 ng·h/mL
[3]; [7]
  Cmax: 3280 ± 1040 ng/mL
  AUC(0-t): 16600 ± 3590 ng·h/mL
[3]; single‐dose oral 200 mg and 400 mg
  increase of C max and AUC with dose: dose‐proportional
Advanced solid tumors; 200 mg BID (n = 4)
  Best response: CR: 0 n (%)
  Best response: Not evaluable: 1 (25.0) n (%)
  Best response: PD: 1 (25.0) n (%)
  Best response: PR: 1 (25.0) n (%)
  Best response: Stable disease: 1 (25.0) n (%)
  DCR (CR + PR + stable disease): 2 (50.0) n (%)
Advanced solid tumors; 200 mg BID (n = 4), 95% CI 0.6–80.6
  ORR: 1 ^§ (25.0) [0.6–80.6] %
Advanced solid tumors; 200 mg dose cohort
  Median TTP: 106 (range, 17–226) days
Advanced solid tumors; 400 mg BID (n = 10)
  Best response: CR: 0 n (%)
  Best response: Not evaluable: 0 n (%)
  Best response: PD: 2 (20.0) n (%)
  Best response: PR: 1 (10.0) n (%)
  Best response: Stable disease: 7 (70.0) n (%)
  DCR (CR + PR + stable disease): 8 (80.0) n (%)
Advanced solid tumors; 400 mg BID (n = 10), 95% CI 0.3–44.5
  ORR: 1 ^¶ (10.0) [0.3–44.5] %
Advanced solid tumors; 400 mg dose cohort
  Median TTP: 170 (range, 48–340) days
Advanced solid tumors; 12 of 16 patients
  disease control overall: 75%
Advanced solid tumors; [8]
  patients progressed at first tumor assessment: 21.4%
  patients with best objective response stable disease: eight patients
Advanced solid tumors; 14 patients with measurable disease, both with platinum sensitive ovarian cancer
  patients with best objective response PR: Two patients
Advanced solid tumors; all 16 patients
  patients who discontinued treatment due to disease progression: 75%
Advanced solid tumors; all patients, range, −46.8% to +50.0%
  median percentage change from baseline in the sum of the tumor sizes of target lesions: −10.3%
Advanced solid tumors; patients with measurable disease (10/14)
  disease control rate (DCR, CR + PR + stable disease): 71.4%
Advanced solid tumors; platinum sensitive ovarian or peritoneal cancer, 400 mg BID, range, 48–340
  Median TTP: 218 days
Advanced solid tumors; total (n = 14)
  Best response: CR: 0 n (%)
  Best response: Not evaluable: 1 (7.1) n (%)
  Best response: PD: 3 (21.4) n (%)
  Best response: PR: 2 (14.3) n (%)
  Best response: Stable disease: 8 (57.1) n (%)
  DCR (CR + PR + stable disease): 10 (71.4) n (%)
Advanced solid tumors; total (n = 14), 95% CI 1.8–42.8
  ORR: 14.3%
Advanced solid tumors; total (n = 14), 95% CI 1.8–42.8, listed as Veliparib
  ORR: 2 (14.3) [1.8–42.8] %
Advanced solid tumors; two patients without measurable disease at baseline
  best objective response: non‐CR/non‐PD
[4]; all patients, range: −97.8% to +155.2%
  median change in CA‐125 level from baseline: −18.8%
[4]; ovarian (n = 14) or primary peritoneal cancer (n = 1)
  patients achieving CA‐125 response: 20%
BRCA‐mutated tumors
  clinical benefit rate (called DCR): 68%
  objective response rate (ORR): 40%
